Laboratory results as given in ChEMBL document CHEMBL4507264, “Data for DCP probe BAY-7598” (2021).

Assays:
[1] = target: Activin receptor type-1 (Homo sapiens) (UniProt Q04771); details: Compound concentration 1000.0 nM
[2] = target: Calcium/calmodulin-dependent protein kinase type II subunit gamma (Homo sapiens) (UniProt Q13555); details: Compound concentration 1000.0 nM
[3] = target: Dual specificity protein kinase CLK1 (Homo sapiens) (UniProt P49759); details: Compound concentration 1000.0 nM
[4] = target: Dual specificity protein kinase CLK4 (Homo sapiens) (UniProt Q9HAZ1); details: Compound concentration 1000.0 nM
[5] = target: Tyrosine-protein kinase CSK (Homo sapiens) (UniProt P41240); details: Compound concentration 1000.0 nM
[6] = target: Casein kinase I isoform delta (Homo sapiens) (UniProt P48730); details: Compound concentration 1000.0 nM
[7] = target: Ephrin type-A receptor 3 (Homo sapiens) (UniProt P29320); details: Compound concentration 1000.0 nM
Chain of Ephrin type-A receptor 3 (Homo sapiens) (P29320 whole entry): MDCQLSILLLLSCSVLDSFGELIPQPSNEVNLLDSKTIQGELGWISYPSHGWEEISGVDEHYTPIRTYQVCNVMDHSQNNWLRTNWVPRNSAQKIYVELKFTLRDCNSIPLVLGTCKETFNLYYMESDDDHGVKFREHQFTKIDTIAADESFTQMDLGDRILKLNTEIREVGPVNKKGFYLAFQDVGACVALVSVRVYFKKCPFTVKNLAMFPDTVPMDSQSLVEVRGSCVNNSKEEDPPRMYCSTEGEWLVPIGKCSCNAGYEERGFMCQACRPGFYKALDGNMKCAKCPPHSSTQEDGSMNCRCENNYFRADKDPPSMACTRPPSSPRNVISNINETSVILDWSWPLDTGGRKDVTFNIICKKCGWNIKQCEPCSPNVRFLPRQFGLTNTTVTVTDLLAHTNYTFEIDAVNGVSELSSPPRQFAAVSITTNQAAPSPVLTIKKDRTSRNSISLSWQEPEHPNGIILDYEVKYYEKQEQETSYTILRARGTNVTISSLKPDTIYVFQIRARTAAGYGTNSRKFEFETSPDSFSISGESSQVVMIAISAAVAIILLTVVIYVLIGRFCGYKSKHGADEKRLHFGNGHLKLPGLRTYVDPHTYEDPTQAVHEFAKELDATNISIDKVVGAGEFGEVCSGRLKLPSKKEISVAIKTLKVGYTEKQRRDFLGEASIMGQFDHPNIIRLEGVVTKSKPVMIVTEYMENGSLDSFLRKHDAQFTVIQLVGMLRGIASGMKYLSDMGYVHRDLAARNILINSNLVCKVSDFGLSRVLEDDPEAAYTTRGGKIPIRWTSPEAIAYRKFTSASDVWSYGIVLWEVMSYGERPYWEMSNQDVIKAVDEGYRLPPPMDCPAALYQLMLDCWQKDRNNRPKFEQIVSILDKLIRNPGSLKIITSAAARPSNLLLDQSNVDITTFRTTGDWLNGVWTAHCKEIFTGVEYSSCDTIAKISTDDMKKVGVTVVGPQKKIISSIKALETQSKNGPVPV

[8] = target: Ephrin type-A receptor 7 (Homo sapiens) (UniProt Q15375); details: Compound concentration 1000.0 nM
Chain of Ephrin type-A receptor 7 (Homo sapiens) (Q15375 28-998 limits assumed): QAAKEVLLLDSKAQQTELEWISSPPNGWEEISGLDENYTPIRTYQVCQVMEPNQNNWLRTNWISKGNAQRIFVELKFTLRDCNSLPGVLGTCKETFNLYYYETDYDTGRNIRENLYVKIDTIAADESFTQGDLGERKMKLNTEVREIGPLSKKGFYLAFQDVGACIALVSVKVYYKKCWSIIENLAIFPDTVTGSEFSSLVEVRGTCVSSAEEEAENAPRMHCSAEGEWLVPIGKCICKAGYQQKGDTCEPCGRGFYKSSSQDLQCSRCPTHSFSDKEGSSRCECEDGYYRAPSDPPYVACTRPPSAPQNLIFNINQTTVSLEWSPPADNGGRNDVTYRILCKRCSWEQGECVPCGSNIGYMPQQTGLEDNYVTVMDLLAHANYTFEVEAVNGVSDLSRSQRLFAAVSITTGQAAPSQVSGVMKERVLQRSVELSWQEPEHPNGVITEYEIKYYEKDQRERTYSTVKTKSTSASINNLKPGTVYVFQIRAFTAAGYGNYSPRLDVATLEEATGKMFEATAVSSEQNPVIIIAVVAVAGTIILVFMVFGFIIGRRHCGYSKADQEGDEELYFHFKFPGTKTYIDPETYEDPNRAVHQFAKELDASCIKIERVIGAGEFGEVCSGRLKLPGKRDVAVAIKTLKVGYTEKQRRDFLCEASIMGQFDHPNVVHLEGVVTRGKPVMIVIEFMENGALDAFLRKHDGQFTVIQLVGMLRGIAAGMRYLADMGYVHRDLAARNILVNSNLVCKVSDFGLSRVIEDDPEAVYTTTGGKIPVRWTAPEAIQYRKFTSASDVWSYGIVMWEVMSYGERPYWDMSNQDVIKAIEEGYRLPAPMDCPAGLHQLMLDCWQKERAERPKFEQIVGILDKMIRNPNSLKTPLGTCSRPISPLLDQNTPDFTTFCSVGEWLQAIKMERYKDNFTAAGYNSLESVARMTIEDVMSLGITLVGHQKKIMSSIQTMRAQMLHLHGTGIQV

[9] = target: Ephrin type-B receptor 2 (Homo sapiens) (UniProt P29323); details: Compound concentration 1000.0 nM
Chain of Ephrin type-B receptor 2 (Homo sapiens) (P29323 whole entry): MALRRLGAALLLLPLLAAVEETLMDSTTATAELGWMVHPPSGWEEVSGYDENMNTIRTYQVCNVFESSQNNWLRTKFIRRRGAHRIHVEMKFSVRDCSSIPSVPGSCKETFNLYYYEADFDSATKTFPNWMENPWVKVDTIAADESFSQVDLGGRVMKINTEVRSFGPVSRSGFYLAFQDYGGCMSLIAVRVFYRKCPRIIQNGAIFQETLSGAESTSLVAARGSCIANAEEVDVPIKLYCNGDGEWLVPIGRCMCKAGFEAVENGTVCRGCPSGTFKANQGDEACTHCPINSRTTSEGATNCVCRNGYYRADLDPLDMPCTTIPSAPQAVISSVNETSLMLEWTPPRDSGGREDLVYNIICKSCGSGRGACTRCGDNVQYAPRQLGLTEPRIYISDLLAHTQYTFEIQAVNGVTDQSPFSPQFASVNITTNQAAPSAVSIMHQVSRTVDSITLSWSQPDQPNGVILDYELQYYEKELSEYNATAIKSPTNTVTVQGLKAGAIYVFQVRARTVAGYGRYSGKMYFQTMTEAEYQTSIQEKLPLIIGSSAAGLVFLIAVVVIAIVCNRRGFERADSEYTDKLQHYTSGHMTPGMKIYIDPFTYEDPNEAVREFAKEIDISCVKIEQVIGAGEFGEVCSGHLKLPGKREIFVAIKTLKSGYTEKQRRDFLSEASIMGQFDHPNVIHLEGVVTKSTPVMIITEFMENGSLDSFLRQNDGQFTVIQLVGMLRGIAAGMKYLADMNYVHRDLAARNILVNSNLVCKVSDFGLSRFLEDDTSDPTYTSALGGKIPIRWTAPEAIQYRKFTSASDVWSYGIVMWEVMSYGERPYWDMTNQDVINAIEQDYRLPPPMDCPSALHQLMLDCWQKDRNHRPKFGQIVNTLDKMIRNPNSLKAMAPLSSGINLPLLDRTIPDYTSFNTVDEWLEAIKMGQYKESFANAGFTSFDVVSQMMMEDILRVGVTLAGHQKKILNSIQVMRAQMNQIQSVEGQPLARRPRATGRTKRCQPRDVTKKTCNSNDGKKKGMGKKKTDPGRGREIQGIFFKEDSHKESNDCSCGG

[10] = target: Ephrin type-B receptor 6 (Homo sapiens) (UniProt O15197); details: Compound concentration 1000.0 nM
[11] = test system: Receptor-type tyrosine-protein kinase FLT3 (Homo sapiens), P36888 [K663Q]; details: Compound concentration 1000.0 nM
[12] = target: Interleukin-1 receptor-associated kinase 1 (Homo sapiens) (UniProt P51617); details: Compound concentration 1000.0 nM
[13] = target: Tyrosine-protein kinase Lck (Homo sapiens) (UniProt P06239); details: Compound concentration 1000.0 nM
Chain of Tyrosine-protein kinase Lck (Homo sapiens) (P06239 2-509 limits assumed): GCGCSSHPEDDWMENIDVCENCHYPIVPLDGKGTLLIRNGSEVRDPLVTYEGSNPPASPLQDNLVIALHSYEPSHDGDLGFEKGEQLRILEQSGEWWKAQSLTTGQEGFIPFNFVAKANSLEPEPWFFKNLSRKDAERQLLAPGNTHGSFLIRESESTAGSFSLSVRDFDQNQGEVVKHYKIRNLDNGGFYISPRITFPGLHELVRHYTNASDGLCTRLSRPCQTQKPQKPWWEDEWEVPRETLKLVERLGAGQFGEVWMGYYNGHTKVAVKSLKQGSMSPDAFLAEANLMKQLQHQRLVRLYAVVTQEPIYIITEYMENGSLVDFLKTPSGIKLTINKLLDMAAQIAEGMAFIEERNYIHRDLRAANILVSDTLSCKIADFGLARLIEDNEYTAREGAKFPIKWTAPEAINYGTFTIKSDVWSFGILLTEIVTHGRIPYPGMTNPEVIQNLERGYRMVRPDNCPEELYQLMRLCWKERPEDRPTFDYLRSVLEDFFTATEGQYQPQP

[14] = target: LIM domain kinase 2 (Homo sapiens) (UniProt P53671); details: Compound concentration 1000.0 nM
[15] = target: Mitogen-activated protein kinase kinase kinase kinase 4 (Homo sapiens) (UniProt O95819); details: Compound concentration 1000.0 nM
[16] = target: MAP kinase-activated protein kinase 5 (Homo sapiens) (UniProt Q8IW41); details: Compound concentration 1000.0 nM
[17] = target: MAP/microtubule affinity-regulating kinase 4 (Homo sapiens) (UniProt Q96L34); details: Compound concentration 1000.0 nM
[18] = target: Dual specificity mitogen-activated protein kinase kinase 4 (Homo sapiens) (UniProt P45985); details: Compound concentration 1000.0 nM
[19] = target: Serine/threonine-protein kinase MRCK beta (Homo sapiens) (UniProt Q9Y5S2); details: Compound concentration 1000.0 nM
[20] = target: Myosin light chain kinase family member 4 (Homo sapiens) (UniProt Q86YV6); details: Compound concentration 1000.0 nM
[21] = target: Mitogen-activated protein kinase 13 (Homo sapiens) (UniProt O15264); details: Compound concentration 1000.0 nM
[22] = target: Phosphatidylinositol 4-phosphate 5-kinase type-1 gamma (Homo sapiens) (UniProt O60331); details: Compound concentration 1000.0 nM
[23] = target: Serine/threonine-protein kinase PknB (Mycobacterium tuberculosis) (UniProt P9WI81); details: Compound concentration 1000.0 nM
Chain of Serine/threonine-protein kinase PknB (Mycobacterium tuberculosis) (P9WI81 whole entry): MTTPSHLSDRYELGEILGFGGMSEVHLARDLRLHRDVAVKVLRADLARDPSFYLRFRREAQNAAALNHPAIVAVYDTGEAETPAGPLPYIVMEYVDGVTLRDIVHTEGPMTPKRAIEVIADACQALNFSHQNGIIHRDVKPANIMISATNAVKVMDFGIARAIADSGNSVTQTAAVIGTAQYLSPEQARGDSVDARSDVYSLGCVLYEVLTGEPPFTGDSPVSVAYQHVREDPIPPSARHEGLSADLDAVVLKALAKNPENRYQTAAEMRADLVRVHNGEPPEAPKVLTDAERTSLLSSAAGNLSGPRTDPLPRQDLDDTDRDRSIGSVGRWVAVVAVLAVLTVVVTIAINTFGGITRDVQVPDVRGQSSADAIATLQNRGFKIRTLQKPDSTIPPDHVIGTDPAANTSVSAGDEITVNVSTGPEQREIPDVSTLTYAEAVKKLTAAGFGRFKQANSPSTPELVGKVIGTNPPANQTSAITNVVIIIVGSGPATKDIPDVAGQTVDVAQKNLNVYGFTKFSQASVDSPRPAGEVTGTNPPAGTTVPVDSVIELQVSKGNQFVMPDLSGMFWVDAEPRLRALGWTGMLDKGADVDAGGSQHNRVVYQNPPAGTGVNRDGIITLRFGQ

[24] = target: Serine/threonine-protein kinase PLK3 (Homo sapiens) (UniProt Q9H4B4); details: Compound concentration 1000.0 nM
[25] = target: Protein kinase C eta type (Homo sapiens) (UniProt P24723); details: Compound concentration 1000.0 nM
[26] = target: Uncharacterized serine/threonine-protein kinase SBK3 (Homo sapiens) (UniProt P0C264); details: Compound concentration 1000.0 nM
Chain of Uncharacterized serine/threonine-protein kinase SBK3 (Homo sapiens) (P0C264 whole entry): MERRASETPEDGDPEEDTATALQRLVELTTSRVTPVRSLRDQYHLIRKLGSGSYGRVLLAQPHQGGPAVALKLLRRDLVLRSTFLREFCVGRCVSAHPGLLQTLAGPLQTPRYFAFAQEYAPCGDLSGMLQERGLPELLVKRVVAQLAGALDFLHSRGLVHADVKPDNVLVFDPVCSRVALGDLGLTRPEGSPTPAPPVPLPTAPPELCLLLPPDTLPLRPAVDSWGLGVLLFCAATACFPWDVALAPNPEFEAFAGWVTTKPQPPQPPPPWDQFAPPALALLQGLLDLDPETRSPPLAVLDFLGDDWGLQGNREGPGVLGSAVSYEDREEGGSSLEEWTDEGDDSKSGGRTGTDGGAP

[27] = target: Serine/threonine-protein kinase 35 (Homo sapiens) (UniProt Q8TDR2); details: Compound concentration 1000.0 nM
Chain of Serine/threonine-protein kinase 35 (Homo sapiens) (Q8TDR2 whole entry): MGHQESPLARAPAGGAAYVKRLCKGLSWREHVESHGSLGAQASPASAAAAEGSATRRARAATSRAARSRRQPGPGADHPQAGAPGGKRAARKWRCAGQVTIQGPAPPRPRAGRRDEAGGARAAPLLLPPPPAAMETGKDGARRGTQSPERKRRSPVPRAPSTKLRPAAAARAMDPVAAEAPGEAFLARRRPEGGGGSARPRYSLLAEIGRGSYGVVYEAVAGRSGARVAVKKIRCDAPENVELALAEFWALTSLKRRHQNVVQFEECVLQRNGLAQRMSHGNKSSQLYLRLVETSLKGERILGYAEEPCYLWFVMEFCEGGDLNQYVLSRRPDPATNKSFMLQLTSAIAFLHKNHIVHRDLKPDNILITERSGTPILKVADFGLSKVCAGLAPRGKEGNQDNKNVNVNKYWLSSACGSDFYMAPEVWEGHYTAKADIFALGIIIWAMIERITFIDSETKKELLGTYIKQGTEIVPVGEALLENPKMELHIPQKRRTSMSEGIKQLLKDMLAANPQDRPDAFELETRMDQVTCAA

[28] = target: Non-receptor tyrosine-protein kinase TYK2 (Homo sapiens) (UniProt P29597); details: Compound concentration 1000.0 nM
[29] = target: Mitogen-activated protein kinase kinase kinase 19 (Homo sapiens) (UniProt Q56UN5); details: Compound concentration 1000.0 nM
[30] = target: T1, Muscarinic acetylcholine receptor M2 (Homo sapiens) (UniProt P08172); details: Compound concentration 10.0 uM
T1 sequence (whole entry): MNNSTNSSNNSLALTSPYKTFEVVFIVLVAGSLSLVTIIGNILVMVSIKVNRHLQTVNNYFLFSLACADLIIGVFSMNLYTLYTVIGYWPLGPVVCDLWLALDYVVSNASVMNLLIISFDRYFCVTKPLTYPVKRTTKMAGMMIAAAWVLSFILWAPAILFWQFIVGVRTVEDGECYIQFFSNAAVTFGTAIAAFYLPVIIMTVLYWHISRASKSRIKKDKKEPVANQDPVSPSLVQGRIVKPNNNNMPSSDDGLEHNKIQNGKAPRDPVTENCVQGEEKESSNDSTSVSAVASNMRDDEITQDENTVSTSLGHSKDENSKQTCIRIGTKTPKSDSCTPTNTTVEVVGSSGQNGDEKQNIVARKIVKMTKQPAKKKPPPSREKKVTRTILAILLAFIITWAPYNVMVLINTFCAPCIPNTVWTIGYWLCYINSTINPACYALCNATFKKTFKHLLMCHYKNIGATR

[31] = target: T2, Alpha-1D adrenergic receptor (Homo sapiens) (UniProt P25100); details: Compound concentration 10.0 uM
T2 sequence (whole entry): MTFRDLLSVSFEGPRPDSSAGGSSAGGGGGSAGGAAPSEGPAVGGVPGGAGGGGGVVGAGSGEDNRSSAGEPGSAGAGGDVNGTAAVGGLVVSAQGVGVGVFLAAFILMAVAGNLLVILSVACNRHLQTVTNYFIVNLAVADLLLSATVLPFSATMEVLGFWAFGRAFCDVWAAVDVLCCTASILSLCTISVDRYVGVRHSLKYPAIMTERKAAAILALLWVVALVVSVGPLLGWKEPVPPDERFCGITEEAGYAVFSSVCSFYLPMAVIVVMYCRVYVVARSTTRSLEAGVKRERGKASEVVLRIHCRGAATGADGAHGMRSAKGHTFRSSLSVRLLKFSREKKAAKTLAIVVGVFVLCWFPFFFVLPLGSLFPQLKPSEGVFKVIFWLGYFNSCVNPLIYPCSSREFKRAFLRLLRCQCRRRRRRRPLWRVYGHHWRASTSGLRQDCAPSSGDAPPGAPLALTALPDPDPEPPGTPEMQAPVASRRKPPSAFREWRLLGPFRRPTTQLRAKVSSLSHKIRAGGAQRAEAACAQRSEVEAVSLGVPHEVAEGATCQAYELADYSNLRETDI

Compound | residual activity [1] [%] | residual activity [2] [%] | residual activity [3] [%] | residual activity [4] [%] | residual activity [5] [%] | residual activity [6] [%] | residual activity [7] [%] | residual activity [8] [%] | residual activity [9] [%] | residual activity [10] [%] | residual activity [11] [%] | residual activity [12] [%] | residual activity [13] [%] | residual activity [14] [%] | residual activity [15] [%] | residual activity [16] [%] | residual activity [17] [%] | residual activity [18] [%] | residual activity [19] [%] | residual activity [20] [%] | further results
O=C(O)[C@@H]1[C@@H](Cn2nnc3ccccc3c2=O)CC[C@H]1C(=O)c1ccc(OCCC2CCOCC2)cc1 [BAY-694] | 100 | 100 | 98 | 100 | 90 | 100 | 100 | 100 | 100 | 100 | 100 | 82 | 93 | 100 | 93 | 76 | 100 | 100 | 96 | 100 | residual activity [21]: 94%; residual activity [22]: 100%; residual activity [23]: 94%; residual activity [24]: 87%; residual activity [25]: 100%; residual activity [26]: 43%; residual activity [27]: 100%; residual activity [28]: 58%; residual activity [29]: 84%; inhibition [30]: -2.32%; inhibition [31]: 0.08%
O=C(O)[C@H]1[C@H](Cn2nnc3ccccc3c2=O)CC[C@@H]1C(=O)c1ccc(OCCC2CCOCC2)cc1 [BAY-7598] | 100 | 90 | 98 | 100 | 100 | 100 | 88 | 100 | 100 | 89 | 100 | 70 | 78 | 90 | 91 | 99 | 96 | 97 | 100 | 100 | residual activity [21]: 97%; residual activity [22]: 100%; residual activity [23]: 77%; residual activity [24]: 100%; residual activity [25]: 89%; residual activity [26]: 100%; residual activity [27]: 100%; residual activity [28]: 41%; residual activity [29]: 78%; inhibition [30]: 1.41%; inhibition [31]: 0.59%
